# In patent US6350759B1, “Dihydro- and tetrahydro-quinoline compounds” (Adir et Compagnie, priority 1998, dated 2002):
# Tested on: Wistar rat
# Assay: Neuroprotection in transient and global cerebral ischaemia in the Wistar rat
# Format: in vivo
# Conditions: administration 30 minutes before the start of the ischaemia; count 7 days after
# Description: This animal model (Pulsinelli and Brierley, Stroke 10, 267-272, 1979), is commonly used for the detection of central anti-ischaemic agents (Buchan et al., Neurosci. Lett., 132(2), 255-258, 1991).
# Under pentobarbital anaesthesia, the vertebral arteries of male Wistar rats (280-320 g, Charles River) are permanently occluded by electrocoagulation and carotid ligatures are placed around each common carotid. 24 hours later, ischaemia is brought about for […] by clamping the carotids with the carotid ligatures. This ischaemic episode causes delayed neurone death at the level of the pyramidal cells of the hippocampus. Neurone death is measured by a neurone count on sections of brain (7 μm, staining: hematoxylin-eosin) of rats sacrificed 7 days after the ischaemic episode. The results are expressed as a percentage of viable hippocampal neurones compared with the total hippocampal neurone population. […] That is true especially of the compound of Example 1, which, on administration 30 minutes before the start of the ischaemia, induces a reduction by a factor of 2.7.
row,SMILES,"reduction of hippocampal neurone death, factor"
1,"CCOc1ccc2c(c1)C=CC1(CCCCC1)N2.Cl [Example 1, 6-Ethoxy-1,2-dihydroquinoline-2-spirocyclohexane hydrochloride]",2.7

# Tested on: Wistar rat
# Assay: Delayed hippocampal neurodegeneracy induced by kainic acid in the Wistar rat
# Format: in vivo
# Conditions: 150 mg/kg i.p. 30 minutes before kainic acid 12 mg/kg s.c.; count 7 days later
# Description: This method is frequently used as a model of temporal epilepsy in humans (Ben-Ari, Neurosci., 14, 375-403, 1985).
# Male Wistar rats (180-220 g, CERJ) are given kainic acid (12 mg/kg) by the subcutaneous route. The animals are sacrificed by decapitation 7 days later. The brains are removed and then cut, in the frozen state, into frontal sections of 7 μm, which are stained (hematoxylin-eosin). Hippocampal neurone death is assessed by a neurone count at the level of the CA3 layer of the hippocampus. The results are expressed as a percentage of viable neurones in the CA3 layer compared with the total neurone population.
row,SMILES,"reduction in neurone death (CA3 layer), factor"
1,"CCOc1ccc2c(c1)C=CC1(CCCCC1)N2.Cl [Example 1, 6-Ethoxy-1,2-dihydroquinoline-2-spirocyclohexane hydrochloride]",3

# Tested on: not given
# Assay: not given
# Conditions: not given
row,melting point,SMILES
1,132 °C,CC(C)(C)Oc1ccc2c(c1)C=CC1(CCCCC1)N2.Cl
2,191 °C,COc1ccc2c(c1)C=CC1(CCCCC1)N2.Cl
3,176 °C,C1=CC2(CCCCC2)Nc2ccc(Oc3ccccc3)cc21.Cl
4,158 to 161 °C,CCOc1c(C)c(C)c2c(c1C)C=CC1(CCCCC1)N2.Cl
5,180 °C,CC(C)(C)C(=O)Oc1ccc2c(c1)C=CC1(CCCCC1)N2.Cl
6,154 to 155 °C,CCOc1cccc2c1NC1(C=C2)CCCCC1.Cl
7,166 to 169 °C (dec.),CCOc1c(C(C)C)cc2c(c1C(C)C)C=CC1(CCCCC1)N2.Cl
8,175 to 180 °C,CCOc1c(C)cc2c(c1C)C=CC1(CCCCC1)N2.Cl
9,227 to 230 °C,CCOc1c(C(C)C)cc2c(c1C(C)C)CCC(C)(C)N2.Cl
10,192 to 198 °C (dec.),CCOc1c(C)c(C)c2c(c1C)CCC1(CCCCC1)N2.Cl

# Tested on: C57BL/6 mouse
# Assay: Antagonism of dopaminergic striatonigral dysfunctions induced by methamphetamine in the C57BL/6 mouse
# Format: in vivo
# Conditions: dose 2×150 mg/kg i.p.
# Description: Male mice (C57BL/6 20-25 g) are given four injections of d-methamphetamine (5 mg/kg base, i.p.) at intervals of 2 hours (Sonsalla and Heikkila, Prog. Neuro-Psychopharmacolo. & Biol. Psychiat., 12, 345-354, 1988) and the anti-oxidant being tested is administered (i.p.) 30 minutes before the first and third injections of d-methamphetamine (Yamamoto and Zhu, J. Pharmacol. Exp. Ther. 287, 107-114, 1988). The rectal temperature is monitored throughout the duration of the experiment. The animals are sacrificed by decapitation 72 hours after the last injection of d-methamphetamine. The brains are rapidly extracted, and the striata are removed, frozen in liquid nitrogen and weighed. The striata are homogenised by sonication in 20 volumes of 0.1N HClO4, and the homogenate is centrifuged at 15000 g for 20 minutes at 4° C. The supernatants are collected for assaying the striata tissue levels of dopamine by means of HPLC coupled with coulometric detection (Bonhomme et al., Brain Res., 675, 215-233, 1995). The results are expressed as μg of dopamine/g of tissue. […] That is true especially of the compound of Example 1 administered in a dose of 2×150 mg/kg i.p.
row,SMILES,effect on dopaminergic deficit induced by methamphetamine (striatal dopamine)
1,"CCOc1ccc2c(c1)C=CC1(CCCCC1)N2.Cl [Example 1, 6-Ethoxy-1,2-dihydroquinoline-2-spirocyclohexane hydrochloride]",oppose the dopaminergic deficit
